The record followed here is ChEMBL document CHEMBL1136445, “Inhibitory effects on mitochondrial complex I of semisynthetic mono-tetrahydrofuran acetogenin derivatives” (Bioorg Med Chem Lett, 2003).

Assay [1] can be described thus: Inhibitory activity against NADH/DH oxidoreductase in beef heart mitochondrial complex I. Set-up: species or system Bos taurus.
The next assay is filed under the species Bos taurus. The assay can be described thus: Inhibitory potency against NADH/DH oxidoreductase with respect to rotenone.
The target of assay [2] is Mitochondrial complex I; NADH oxidoreductase (Bos taurus) (UniProt P25708+P52505). The assay can be described thus: Inhibitory potency against NADH oxidase with respect to compound 2c. Format: protein-complex assay.
In assay [3] the target is Mitochondrial complex I; NADH oxidoreductase (Bos taurus, UniProt P25708+P52505). The assay can be described thus: Inhibitory activity against NADH oxidase in beef heart mitochondrial complex I. Format: protein-complex assay.

The structures appear in SMILES notation. Some results are limits rather than exact numbers.

Mitochondrial complex I; NADH oxidoreductase, sequence (P25708 21-464 limits assumed, other chains not shown): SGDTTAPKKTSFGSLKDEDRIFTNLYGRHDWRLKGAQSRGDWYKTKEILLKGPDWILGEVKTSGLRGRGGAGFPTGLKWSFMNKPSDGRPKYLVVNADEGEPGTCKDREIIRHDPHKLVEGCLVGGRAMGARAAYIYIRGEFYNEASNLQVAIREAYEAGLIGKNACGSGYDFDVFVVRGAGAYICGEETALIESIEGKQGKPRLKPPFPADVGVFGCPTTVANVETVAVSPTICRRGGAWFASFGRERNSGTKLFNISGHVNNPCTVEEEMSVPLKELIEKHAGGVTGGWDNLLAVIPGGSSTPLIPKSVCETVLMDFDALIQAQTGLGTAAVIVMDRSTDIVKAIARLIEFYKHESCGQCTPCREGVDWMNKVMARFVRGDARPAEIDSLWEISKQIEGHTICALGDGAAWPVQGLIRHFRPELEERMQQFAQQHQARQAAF

Regarding `CCCCCCCCCCCC[C@H](O)[C@@H]1CC[C@@H]([C@@H](O)CCCC[C@@H](O)CCCCC[C@@H](O)CC2=C[C@H](C)OC2=O)O1`, the 50% inhibitory concentration (IC50) (in general, the point on the concentration scale where inhibition reaches its midpoint) stood at 26.1 nM in assay [1] and 2.3 nM in assay [3]. In addition, the Relative potency was found to be 0.62 in the assay filed under Bos taurus and 3.2 in assay [2].
In the same order, the values of `CCCCCCCCCCCC[C@H](O)[C@@H]1CC[C@@H]([C@@H](O)CCCC/C(CCCCC[C@@H](O)CC2=C[C@H](C)OC2=O)=N\O)O1` are 10.3 nM, 2.7 nM, 0.52 and 3.8.
The matching figures for `CCCCCCCCCCCC[C@H](O)[C@@H]1CC[C@@H]([C@@H](O)CCCCC(=O)CCCCC[C@@H](O)CC2=C[C@H](C)OC2=O)O1`: 3.7 nM, 0.8 nM, 0.15 and 1.1.
On to `CCCCCCCCCCCC[C@H](O)[C@@H]1CC[C@@H]([C@@H](O)CCCCC(=O)CCCCC[C@@H]2CC(CC(C)=O)C(=O)O2)O1` (some centres not stated), for which the IC50 in assay [1] amounted to 1.1 nM; in assay [3], 0.7 nM. For the same compound, the results for the Relative potency (in the assay listed under Bos taurus; in assay [2]) were 0.13 and 1, respectively.
Turning to `CCCCCCCCCCCC[C@H](O)[C@@H]1CC[C@@H]([C@@H](O)CCCC[C@@H](O)CCCCC[C@@H]2CC(CC(C)O)C(=O)O2)O1` (some centres not stated), the IC50 in assay [1] was 51 nM; in assay [3] it was 5.8 nM. Moreover, the Relative potency in the assay listed under Bos taurus is 1.1; in assay [2], 8.2.
Turning to `CCCCCCCCCCCC[C@H](O)[C@@H]1CC[C@@H]([C@@H](O)CCCC[C@@H](O)CCCCC[C@@H](O)CC2(O)C(=O)O[C@@H](C)C2O)O1` (some centres not stated), the half-maximal inhibitory concentration (IC50) amounted to 55.2 nM in assay [1] and 21.8 nM in assay [3]. The values for the Relative potency (in the assay listed under Bos taurus; in assay [2]) were 4.27 and 31.1, respectively.
In the same order, the values of `CCCCCCCCCCCC[C@H](O)[C@@H]1CC[C@@H]([C@@H](O)CCCC[C@@H](O)CCCCC[C@@H](O)CC2C[C@H](C)OC2=O)O1` (some centres not stated) are 19.9 nM, 3.6 nM, 0.7 and 5.1.
On to `CCCCCCCCCCCC[C@H](O)[C@@H]1CC[C@@H]([C@@H](O)CCCC[C@@H](O)CCCCC[C@@H]2CC(CC(C)=O)C(=O)O2)O1` (some centres not stated), for which the IC50 came to 14.6 nM in assay [1] and 3.3 nM in assay [3]. Also, the Relative potency amounted to 0.64 in the assay filed under Bos taurus and 4.7 in assay [2].
The matching figures for `CCCCCCCCCCCC[C@H](O)[C@@H]1CC[C@@H]([C@@H](O)CCCC[C@@H](O)CCCCC[C@@H]2CC(C/C(C)=N/O)C(=O)O2)O1` (some centres not stated): 8.7 nM, 1.9 nM, 0.37 and 2.7.
As for `CCCCCCCCCCCC[C@H](O)[C@@H]1CC[C@@H]([C@@H](O)CCCCC(CCCCC[C@@H](O)CC2=C[C@H](C)OC2=O)NCCc2ccc(OC)c(OCc3ccccc3)c2)O1` (some centres not stated), the IC50 in assay [1] was > 1200 nM; in assay [3], > 150 nM.
Consider `C=C(C)[C@H]1Cc2c(ccc3c2O[C@@H]2COc4cc(OC)c(OC)cc4[C@@H]2C3=O)O1` [ROTENONE], for which the IC50 in assay [1] came out at 28.8 nM; in assay [3] it was 5.1 nM. In addition, the results for the Relative potency (in the assay listed under Bos taurus; in assay [2]) were 1 and 7.2, respectively.
